Measured values reported in patent US20240218019A1, “METHODS AND COMPOSITIONS COMPRISING MHC CLASS I PEPTIDES” (BOARD OF REGENTS, THE UNIVERSITY OF TEXAS SYSTEM, priority 2021, published 2024).

Legend:
[1] = LS patients, long-term exposure; cited from earlier work
[2] = tested on: PBMCs from LS Rhesus macaques; experiment: IFNγ ELISpot assay with PBMCs from LS Rhesus macaques; type: cell-based; conditions: stimulated 48 h (FIG. 22B)
Experimental: FIG. 22A-B. Validation of the predicted neoAg in LS Rhesus macaques. A) Immunogenicity of neoAg peptide pools and deconvoluted neoAg with ELISpot assay. PBMCs from LS Rhesus macaques (n=4) were stimulated with […] and 12 individual peptides from the pools, concavalin A (+ve control), and DMSO (−ve control) for 48 h. B) ELISpot images. […] Spot forming Units for IFNγ secretion were analyzed and quantitated by ELISpot plate reader.
Since the ultimate goal is to develop a universal LS-cancer vaccine. the inventors then tested the immunogenicity of the ELISpot-reactive peptides in PBMCs from LS Rhesus macaques who carry a pathogenic mutation in the MLH1 gene with pathology similar to human LS. These animals. housed at MD Anderson Cancer Center, spontaneously develop CRC and serve as an ideal preclinical LS model for immune-interception strategies with neoAg vaccines. PBMCs from four different LS Rhesus were stimulated with four peptide pools and 12 individual peptides for ELISpot assays as indicated in FIG. 22A.

Row | Compound | resident immune cells within the mucosal tissue of the colon [1] | immunogenicity of deconvoluted peptides in stimulated rhesus PBMC (ELISpot) [2]
1 | COc1ccc2cc([C@H](C)C(=O)O)ccc2c1 [naproxen] | increase of resident immune cells within the mucosal tissue of the colon | –
2 | CELSR2: deconvoluted neoAg peptide from CELSR2, tested in LS Rhesus PBMCs (RLDKGNFAGA) | – | except PLOD1 and CELSR2 were determined immunogenic
